Publication PMC7138916 (Pharmacology Research & Perspectives, 2020)
Read-outs that look alike come from different tables or passages of the source.

What was measured:
[1] = Bidirectional permeability in parental MDCK cells; assay type: in vitro ADME, Canine; details: dog, MDCK
[2] = tested on: efflux transporters (eg, P‐gp, BCRP, MRPs); test: Classification as efflux transporter substrate
[3] = Bidirectional permeability and efflux ratio in Caco‐2 cells; assay type: in vitro ADME, human; details: human, Caco-2
[4] = tested on: P‐glycoprotein; details: digoxin efflux, rat colon; cited from earlier work
[5] = Rat pharmacokinetic study, IV single bolus; details: male, Sprague-Dawley, in vivo, iv
[6] = tested on: P‐glycoprotein; details: digoxin efflux, human colon, cited from earlier work

- Papp A→B at 2 h, 1 μmol/L [1]: 2.22 ± 0.34 ×10⁻⁶ cm/s
- Papp B→A at 2 h, 1 μmol/L [1]: 2.73 ± 0.45 ×10⁻⁶ cm/s
- Papp at 2 h, 1 μmol/L [1]: 2.48 ± 0.46 ×10⁻⁶ cm/s
- Efflux transporter substrate ([2]; Yes/No): Yes
- Class (based on membrane permeability and ER value) ([2]; parental MDCK, MDR1‐MDCK, and Caco‐2 cell lines): Class II
- Papp A→B at 2 h, 5 μmol/L [3]: 0.477 ± 0.088 ×10⁻⁶ cm/s
- Papp B→A at 2 h, 5 μmol/L [3]: 23 ± 1.6 ×10⁻⁶ cm/s
- Vd [5]: 0.376 ± 0.013 L/kg
- clearance [5]: 9.1 ± 1.3 mL/min/kg
- half-life [5]: 1.3 ± 0.26 h
SMILES: C[C@H]1O[C@@H](O[C@H]2[C@@H](O)C[C@H](O[C@H]3[C@@H](O)C[C@H](O[C@H]4CC[C@@]5(C)[C@H](CC[C@@H]6[C@@H]5C[C@@H](O)[C@]5(C)[C@@H](C7=CC(=O)OC7)CC[C@]65O)C4)O[C@@H]3C)O[C@@H]2C)C[C@H](O)[C@@H]1O [Digoxin, digoxin]
- J max (maximal net flux) [4]: 2.2 ± 0.3 nmol/h/cm^2
- J max (maximal net flux) [6]: 3.1 ± 0.8 nmol/h/cm^2
- EC50 ([6]; read-out: EC50 (the concentration at which half‐maximal flux was achieved)): 58.7 ± 15.5 µM
